Laboratory results published in patent US12410185B2, “Compounds targeting mutant calreticulin” (MYELOPRO DIAGNOSTICS AND RESEARCH GmbH, priority 2018, dated 2025).
Read-outs that look alike come from different tables or passages of the source.

Key:
[1] = test system: CALR wild-type cell line; assay: 72 h dose response of hematoxylin, analogues and control compounds; format: cell-based; conditions: 72 h assay
Method: (§1) Ba/F3 and UT-7-TPO were plated 5.000 cells/well and 16.000 cells/well into 96-well plates with the desirable concentrations of compounds or cytokines added to a total volume of 100 ul. 72 hours later, the CellTiter-Glo luminescent Cell Viability Assay (Promega) was used to determine the cell viability. The luminescent signal was detected by a VICTOR Multilabel Plate Reader (PerkinElmer). Dose response data was analyzed by Graphpad Prism 7.0.
(§2) To further explore the chemical space of the compound, a few hematoxylin analogues were also tested (FIGS. 15 to 17). […] The compounds Protosappanin B (A-4) and RJ002 (B-2) were also tested. […] As a comparison, the clinically used chemotherapeutic drugs hydroxyurea and ruxolitinib were also tested in the cell models.

[2] = test system: CALR mutant cell lines; assay: cells; conditions: for IC50: read-out: IC50 in mutant cell lines
Method: as §1, §2

[3] = test system: WT cell line (UT-7 cells); assay: IC50 of further hematoxylin derivatives (Table 3); format: cell-based; conditions: Homo sapiens
Method: (§3) Cytotoxicity screens were performed essentially as described in Example 1.

[4] = test system: mutant cell line (UT-7 cells); assay: IC50 of further hematoxylin derivatives (Table 3); format: cell-based; conditions: Homo sapiens
Method: as §3

[5] = test system: UT-7 cells; assay: cytotoxicity screen of further hematoxylin derivatives; format: cell-based; conditions: 30 uM (3 uM for compounds insoluble in 10 mM stock)
Method: as §3
(§4) These included HEM8 (B-18), HEM11 (B-19), HEM30 (B-20), HEM36 (B-26), HEM44 (B-34) and HEM46 (B-36) which were used at 1/10 of the concentration (1 uM for Ba/F3 and 3 uM for UT-7).

[6] = solubility in 10 mM stock solution; format: physicochemical; conditions: compounds dissolved in DMSO
Method: All tested compounds were dissolved in DMSO.
as §4

[7] = test system: Ba/F3 cells; assay: cytotoxicity screen of further hematoxylin derivatives; format: cell-based, mouse; conditions: 10 uM (1 uM for compounds insoluble in 10 mM stock)
Method: as §3, §4

[8] = UT7, UT-7 cells, read-out: IC50 WT cell line
[9] = UT7, UT-7 cells, read-out: IC50 mutant cell line

**Q.** With `Oc1ccc2c(c1)OC[C@]1(O)Cc3cc(O)c(O)cc3[C@H]21` [Brazilin (A-2), Brazilin] as the compound, how does the IC50 ([1]; read-out: IC50 in wild-type cell line) read?
**A.** 6.2 µM

**Q.** And the “cytotoxic selectivity for mutant vs wild-type cell lines” value (“cytotoxic selectivity for mutant” for short) [2]?
**A.** comparable cytotoxic selectivity

**Q.** What about the IC50 ([2]; 72 h) of the same compound?
**A.** 1.9 µM

**Q.** For `NC(=O)NO` [Hydroxyurea, reference compound], which “cytotoxic selectivity for mutant” value [2] is on record?
**A.** did not show any selective killing effect

**Q.** Which “cytotoxic selectivity for mutant” value [2] does the source give for `CC(=O)Oc1cc2c(cc1OC(C)=O)[C@@H]1c3ccc(OC(C)=O)c(OC(C)=O)c3OC[C@]1(OC(C)=O)C2` [L-HEM1 (B-1)] here?
**A.** compromise both potency and selectivity

**Q.** What does the source list for `CCCC(=O)Oc1cc2c(cc1OC(=O)CCC)[C@@H]1c3ccc(OC(=O)CCC)c(OC(=O)CCC)c3OC[C@]1(O)C2` [HEM47 (B-37)]?
**A.** IC50 ([3]; UT7, read-out: IC50 WT cell line): 14.7 µM; IC50 ([4]; UT7, read-out: IC50 mutant cell line): 12.4 µM; selectivity and potency in cytotoxicity screen [5]: Best results in terms of selectivity and potency

**Q.** Which IC50 ([1]; read-out: IC50 in wild-type cells) does the source give for `N#CC[C@H](C1CCCC1)n1cc(-c2ncnc3[nH]ccc23)cn1` [ruxolitinib, Ruxolitinib, reference compound] here?
**A.** 0.4 µM

**Q.** And the “cytotoxic selectivity for mutant” value [2]?
**A.** mild selective effect

**Q.** What about the IC50 ([2]; 72 h) of the same compound?
**A.** 0.195 µM

**Q.** What about the “IC50 reduction in the mutant cell lines compared to wild-type cells” value ([2]; 72 h assay) of the same compound?
**A.** about 2 fold

**Q.** With `O=C(CCN1C(=O)/C(=C/c2ccc(Cl)cc2)SC1=S)Oc1cc2c(cc1OC(=O)CCN1C(=O)/C(=C/c3ccc(Cl)cc3)SC1=S)[C@@H]1c3ccc(OC(=O)CCN4C(=O)/C(=C/c5ccc(Cl)cc5)SC4=S)c(OC(=O)CCN4C(=O)/C(=C/c5ccc(Cl)cc5)SC4=S)c3OC[C@]1(O)C2` [HEM11 (B-19)] as the compound, how does the “solubility in a 10 mM stock solution” value [6] read?
**A.** insoluble in a 10 mM stock solution

**Q.** For `O=C(Oc1cc2c(cc1OC(=O)C(Cl)Cl)[C@@H]1c3ccc(OC(=O)C(Cl)Cl)c(OC(=O)C(Cl)Cl)c3OC[C@]1(O)C2)C(Cl)Cl` [HEM44 (B-34)], which “solubility in a 10 mM stock solution” value [6] is on record?
**A.** insoluble in a 10 mM stock solution

**Q.** For `CC(C)CC(=O)Oc1cc2c(cc1OC(=O)CC(C)C)[C@@H]1c3ccc(OC(=O)CC(C)C)c(OC(=O)CC(C)C)c3OC[C@]1(O)C2` [HEM46 (B-36)], which “solubility in a 10 mM stock solution” value [6] is on record?
**A.** insoluble in a 10 mM stock solution

**Q.** Which “selectivity and potency in cytotoxicity screen” value (from here on “selectivity and potency”) [7] does the source give for `CC(C)(C)C(=O)Oc1cc2c(cc1OC(=O)C(C)(C)C)[C@@H]1c3ccc(OC(=O)C(C)(C)C)c(OC(=O)C(C)(C)C)c3OC[C@]1(O)C2` [HEM48 (B-38)] here?
**A.** Best results in terms of selectivity and potency

**Q.** With `O=C(Oc1cc2c(cc1OC(=O)c1cccc(N3C(=O)/C(=C/c4cccc(F)c4)SC3=S)c1)[C@@H]1c3ccc(OC(=O)c4cccc(N5C(=O)/C(=C/c6cccc(F)c6)SC5=S)c4)c(OC(=O)c4cccc(N5C(=O)/C(=C/c6cccc(F)c6)SC5=S)c4)c3OC[C@]1(O)C2)c1cccc(N2C(=O)/C(=C/c3cccc(F)c3)SC2=S)c1` [HEM8 (B-18)] as the compound, how does the “solubility in a 10 mM stock solution” value [6] read?
**A.** insoluble in a 10 mM stock solution

**Q.** Which “cytotoxic selectivity for mutant” value [2] does the source give for Hematein [Hematein (A-3)] here?
**A.** retained the cytotoxic selectivity

**Q.** What about the IC50 ([2]; 72 h assay) of the same compound?
**A.** 7.5 µM

**Q.** With `COc1cc2c(cc1OC)C1c3ccc(OC)c(OC)c3OCC1(O)C2` (centres unmarked) [NSC7251 (A-5)] as the compound, how does the “cytotoxic selectivity for mutant” value [2] read?
**A.** compromise both potency and selectivity

**Q.** Which results are given for `CC(C)C(=O)Oc1cc2c(cc1OC(=O)C(C)C)[C@@H]1c3ccc(OC(=O)C(C)C)c(OC(=O)C(C)C)c3OC[C@]1(O)C2` [HEM40 (B-30)]?
**A.** IC50 [3, 8]: 14.5 µM; IC50 [4, 9]: 12 µM; selectivity and potency in cytotoxicity screen [5]: Best results in terms of selectivity and potency

**Q.** For `CN1C(=O)/C(=C/c2ccc(C(=O)Oc3cc4c(cc3OC(=O)c3ccc(/C=C5\SC(=S)N(C)C5=O)cc3)[C@@H]3c5ccc(OC(=O)c6ccc(/C=C7\SC(=S)N(C)C7=O)cc6)c(OC(=O)c6ccc(/C=C7\SC(=S)N(C)C7=O)cc6)c5OC[C@]3(O)C4)cc2)SC1=S` [HEM32 (B-22)], which IC50 [3, 8] is on record?
**A.** 18.8 µM

**Q.** And the IC50 [4, 9]?
**A.** 16.1 µM

**Q.** And the “selectivity and potency” value [5]?
**A.** Best results in terms of selectivity and potency

**Q.** For `CCC(=O)Oc1cc2c(cc1OC(=O)CC)[C@@H]1c3ccc(OC(=O)CC)c(OC(=O)CC)c3OC[C@]1(O)C2` [HEM42 (B-32)], which IC50 [3, 8] is on record?
**A.** 26.2 µM

**Q.** What about the IC50 [4, 9] of the same compound?
**A.** 20.8 µM

**Q.** And the “selectivity and potency” value [5]?
**A.** Best results in terms of selectivity and potency

**Q.** What does the source list for `O=C(Oc1cc2c(cc1OC(=O)c1ccc(/C=C3\SC(=S)N(c4ccc(F)cc4)C3=O)cc1)[C@@H]1c3ccc(OC(=O)c4ccc(/C=C5\SC(=S)N(c6ccc(F)cc6)C5=O)cc4)c(OC(=O)c4ccc(/C=C5\SC(=S)N(c6ccc(F)cc6)C5=O)cc4)c3OC[C@]1(O)C2)c1ccc(/C=C2\SC(=S)N(c3ccc(F)cc3)C2=O)cc1` [HEM30 (B-20)]?
**A.** solubility in a 10 mM stock solution [6]: insoluble in a 10 mM stock solution; selectivity and potency in cytotoxicity screen [7]: Best results in terms of selectivity and potency

**Q.** For `O=C(Oc1cc2c(cc1OC(=O)c1ccc(Cl)cc1)[C@@H]1c3ccc(OC(=O)c4ccc(Cl)cc4)c(OC(=O)c4ccc(Cl)cc4)c3OC[C@]1(OC(=O)c1ccc(Cl)cc1)C2)c1ccc(Cl)cc1` [HEM36 (B-26)], which “solubility in a 10 mM stock solution” value [6] is on record?
**A.** insoluble in a 10 mM stock solution
